In patent US7998978B2 (Pfizer Inc., priority 2006, dated 2011):

Target: T1, JNK1α1 (Homo sapiens, UniProt P45983)
T1 construct: catalytic domain containing amino acids 1-364 and N-terminal hexahistidine tag; hexahistidine (His6) (N); made in house; host or cells: E. coli BL21 (DE3)
Experiment: Coupled spectrophotometric (PK/LDH) JNK1α1 assay: % inhibition and Ki determination
Assay type: biochemical
Conditions: @1 uM; read-out: % Inhibition JNK-1
Summary of the method: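 Initial rates were taken from the absorbance decrease at 340 nm at 30° C. Ki was fitted with a tight-binding model over 11 concentrations (top 100 μM); single-point inhibition was tested at 1 or 10 μM.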

T1 sequence (P45983 1-364): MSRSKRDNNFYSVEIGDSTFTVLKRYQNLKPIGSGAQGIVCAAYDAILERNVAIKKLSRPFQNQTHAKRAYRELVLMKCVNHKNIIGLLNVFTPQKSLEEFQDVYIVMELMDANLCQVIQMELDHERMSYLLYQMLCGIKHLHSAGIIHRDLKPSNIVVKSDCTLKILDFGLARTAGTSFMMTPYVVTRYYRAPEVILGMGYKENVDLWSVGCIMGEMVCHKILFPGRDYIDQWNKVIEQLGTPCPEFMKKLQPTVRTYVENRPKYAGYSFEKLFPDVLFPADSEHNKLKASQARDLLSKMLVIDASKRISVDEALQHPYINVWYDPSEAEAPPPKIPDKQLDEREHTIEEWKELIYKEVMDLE

inhibition at 1 µM [%] | SMILES
33 | O[C@H]1CC[C@H](Nc2ncc3ccc(OC[C@@H]4CCCN5CCCC[C@H]45)cc3n2)CC1 [Example 283, trans-4-({7-[(1R,9aR)-octahydro-2H-quinolizin-1-ylmethoxy]quinazolin-2-yl}amino)cyclohexanol]
27 | CCN1CCC(Oc2ccc3cnc(N[C@H]4CC[C@H](O)CC4)nc3c2)C1 (stereo partly drawn) [Example 278, trans-4-({7-[(1-ethylpyrrolidin-3-yl)oxy]quinazolin-2-yl}amino)cyclohexanol]
26 | CNC(=O)[C@H](C)NC(=O)c1cccc2cnc(N[C@H]3CC[C@H](O)CC3)nc12 [Example 516, 2-[(trans-4-hydroxycyclohexyl)amino]-N-[(1S)-1-methyl-2-(methylamino)-2-oxoethyl]quinazoline-8-carboxamide]
71 | Cc1noc(C)c1COc1ccc2cnc(N[C@H]3CC[C@H](O)CC3)nc2c1 [Example 295, trans-4-({7-[(3,5-dimethylisoxazol-4-yl)methoxy]quinazolin-2-yl}amino)cyclohexanol]
15 | O=C(NC1(CO)CCCC1)c1ccc2cnc(NC3CCCC3)nc2c1 [Example 421, 2-(cyclopentylamino)-N-[1-(hydroxymethyl)cyclopentyl]quinazoline-7-carboxamide]
46 | O[C@H]1CC[C@H](Nc2ncc3ccc(O[C@H]4CCN(Cc5ccccc5)C4)cc3n2)CC1 [Example 277, trans-4-[(7-{[(3S)-1-benzylpyrrolidin-3-yl]oxy}quinazolin-2-yl)amino]cyclohexanol]

Same assay, conditions: @10 uM; read-out: % Inhibition JNK-1

inhibition at 10 µM [%] | SMILES
38 | CC(C)c1noc(CNC(=O)c2cccc3cnc(N[C@H]4CC[C@H](O)CC4)nc23)n1 [Example 500, 2-[(trans-4-hydroxycyclohexyl)amino]-N-[(3-isopropyl-1,2,4-oxadiazol-5-yl)methyl]quinazoline-8-carboxamide]
17 | c1cc(CNc2cc3cc(-c4cn[nH]c4)ccc3cn2)[nH]n1 [Example 229, 6-(1H-pyrazol-4-yl)-N-(1H-pyrazol-5-ylmethyl)isoquinolin-3-amine]
46 | N#Cc1cccc(CNc2cc3cc(-c4cn[nH]c4)ccc3cn2)c1 [Example 238, 3-({[6-(1H-pyrazol-4-yl)isoquinolin-3-yl]amino}methyl)benzonitrile]
54 | CC(C)(C)N1CC(CNC(=O)c2cccc3cnc(N[C@H]4CC[C@H](O)CC4)nc23)CC1=O (stereo partly drawn) [Example 503, N-[(1-tert-butyl-5-oxopyrrolidin-3-yl)methyl]-2-[(trans-4-hydroxycyclohexyl)amino]quinazoline-8-carboxamide]
76 | Cc1cccnc1CC(C)NC(=O)c1cccc2cnc(N[C@H]3CC[C@H](O)CC3)nc12 (stereo partly drawn) [Example 495, 2-[(trans-4-hydroxycyclohexyl)amino]-N-(1-methyl-2-(3-methylpyridin-2-yl)ethyl]quinazoline-8-carboxamide]
42 | CCN(CC)CCOc1cccc2cnc(N[C@H]3CC[C@H](O)CC3)nc12 [Example 261, trans-4-({8-[2-(diethylamino)ethoxy]quinazolin-2-yl}amino)cyclohexanol]
41 | CS(=O)(=O)Nc1ccc(CNc2cc3cc(-c4cn[nH]c4)ccc3cn2)cc1 [Example 237, N-[4-({[6-(1H-pyrazol-4-yl)isoquinolin-3-yl]amino}methyl)phenyl]methanesulfon-amide]

Same assay, conditions: JNK-1

SMILES | Ki [nM]
COc1ccc(CCCC(=O)Nc2cc3cc(-c4cn[nH]c4)ccc3cn2)cc1 [Example 41, 4-(4-methoxyphenyl)-N-[6-(1H-pyrazol-4-yl)isoquinolin-3-yl]butanamide] | 14
CCS(=O)(=O)N[C@H]1CC[C@H](Nc2ncc3cccc(OC4CCOCC4)c3n2)CC1 [Example 183, N-(trans-4-{[8-(tetrahydro-2H-pyran-4-yloxy)quinazolin-2-yl]amino}cyclohexyl)ethanesulfonamide] | 220
OC1(c2cncnc2)CCC(Nc2cc3cc(-c4cn[nH]c4)ccc3cn2)CC1 (stereo not shown) [Example 215, 4-{[6-(1H-pyrazol-4-yl)isoquinolin-3-yl]amino}-1-pyrimidin-5-ylcyclohexanol] | 250
COc1ccc(CCC(=O)Nc2cc3cc(-c4cn[nH]c4)ccc3cn2)cc1 [Example 20, 3-(4-methoxyphenyl)-N-[6-(1H-pyrazol-4-yl)isoquinolin-3-yl]propanamide] | 44
O=C(NC1CCOC1)c1cccc2cnc(N[C@H]3CC[C@H](O)CC3)nc12 (stereo partly drawn) [Example 111, 2-[(trans-4-hydroxycyclohexyl)amino]-N-(tetrahydrofuran-3-yl)quinazoline-8-carboxamide] | 142
O=C(N[C@@H]1COC[C@H]1O)c1cccc2cnc(N[C@H]3CC[C@H](O)CC3)nc12 (relative stereo) [Example 139, 2-[(trans-4-hydroxycyclohexyl)amino]-N-[(trans)-4-hydroxytetrahydrofuran-3-yl]quinazoline-8-carboxamide] | 16
CC(C)N[C@H]1CC[C@H](Nc2ncc3cccc(OC4CCOC4)c3n2)CC1 (stereo partly drawn) [Example 193, trans-N-isopropyl-N′-[8-(tetrahydrofuran-3-yloxy)quinazolin-2-yl]cyclohexane-1,4-diamine] | 1410
CCS(=O)(=O)N[C@H]1CC[C@H](Nc2ncc3cccc(OC4CCOC4)c3n2)CC1 (stereo partly drawn) [Example 188, N-(trans-4-{[8-(tetrahydrofuran-3-yloxy)quinazolin-2-yl]amino}cyclohexyl)ethanesulfonamide] | 374
Cc1ccc2cnc(N[C@H]3CC[C@H](O)CC3)nc2c1OCC(=O)NC1CCS(=O)(=O)C1 (stereo partly drawn) [Example 211, N-(1,1-dioxidotetrahydro-3-thienyl)-2-({2-[(trans-4-hydroxycyclohexyl)amino]-7-methylquinazolin-8-yl}oxy)acetamide] | 1030
O=C(Cc1ccc2ccccc2c1)Nc1cc2cc(-c3cn[nH]c3)ccc2cn1 [Example 5, 2-(2-naphthyl)-N-[6-(1H-pyrazol-4-yl)isoquinolin-3-yl]acetamide] | 79
FC1(F)CCC(Nc2ncc3cccc(OC4CCOCC4)c3n2)CC1 [Example 176, N-(4,4-difluorocyclohexyl)-8-(tetrahydro-2H-pyran-4-yloxy)quinazolin-2-amine] | 422
O=C(NCCc1ccccc1)c1ccc2cnc(N[C@H]3CC[C@H](O)CC3)nc2c1 [Example 82, 2-[(trans-4-hydroxycyclohexyl)amino]-N-(2-phenylethyl)quinazoline-7-carboxamide] | 235
CC(C)Nc1ncc2cccc(OC3CCOC3)c2n1 (stereo not shown) [Example 172, N-isopropyl-8-(tetrahydrofuran-3-yloxy)quinazolin-2-amine] | 3570
O=C(CC1CCS(=O)(=O)C1)Nc1cc2cc(-c3cn[nH]c3)ccc2cn1 (stereo not shown) [Example 13, 2-(1,1-dioxidotetrahydro-3-thienyl)-N-[6-(1H-pyrazol-4-yl)isoquinolin-3-yl]acetamide] | 36
Cc1ccc2cnc(N[C@H]3CC[C@H](O)CC3)nc2c1OCC(=O)NC1CCOCC1 [Example 210, 2-({2-[(trans-4-hydroxycyclohexyl)amino]-7-methylquinazolin-8-yl}oxy)-N-(tetrahydro-2H-pyran-4-yl)acetamide] | 1710
CNCCOc1ccc(-c2cccc3cnc(N[C@H]4CC[C@H](O)CC4)nc23)cc1 [Example 199, trans-4-[(8-{4-[2-(methylamino)ethoxy]phenyl}quinazolin-2-yl)amino]cyclohexanol] | 98
CC(O)c1cccc(NC(=O)c2cccc3cnc(N[C@H]4CC[C@H](O)CC4)nc23)n1 (stereo partly drawn) [Example 126, 2-[(trans-4-hydroxycyclohexyl)amino]-N-[6-(1-hydroxyethyl)pyridin-2-yl]quinazoline-8-carboxamide] | 382
CC(C)NC(=O)c1cccc2cnc(N[C@H]3CC[C@H](O)CC3)nc12 [Example 103, 2-[(trans-4-hydroxycyclohexyl)amino]-N-isopropylquinazoline-8-carboxamide] | 176

The remaining lines, values ahead:

Ki [nM] | SMILES
177 | O=C(NC(CO)c1ccccc1)c1ccc2cnc(NC3CCCC3)nc2c1 (stereo not shown) [Example 379, 2-(cyclopentylamino)-N-(2-hydroxy-1-phenylethyl)quinazoline-7-carboxamide]
233 | O[C@H]1CC[C@H](Nc2ncc3cccc(OCC4CCCCO4)c3n2)CC1 (stereo partly drawn) [Example 243, trans-4-{[8-(tetrahydro-2H-pyran-2-ylmethoxy)quinazolin-2-yl]amino}cyclohexanol]
1270 | CC(C)(CO)NC(=O)c1ccc2cnc(NC3CCCCC3)nc2c1 [Example 413, 2-(cyclohexylamino)-N-(2-hydroxy-1,1-dimethylethyl)quinazoline-7-carboxamide]
1810 | COc1ncccc1NC(=O)c1ccc2cnc(N[C@H]3CC[C@H](O)CC3)nc2c1 [Example 362]
478 | O=C(NC1(CO)CCCC1)c1ccc2cnc(N[C@H]3CC[C@H](O)CC3)nc2c1 [Example 400, 2-[(trans-4-hydroxycyclohexyl)amino]-N-[1-(hydroxymethyl)cyclopentyl]quinazoline-7-carboxamide]
605 | O=C(N[C@H](CO)Cc1ccccc1)c1ccc2cnc(N[C@H]3CC[C@H](O)CC3)nc2c1 [Example 402, N-[(1S)-1-benzyl-2-hydroxyethyl]-2-[(trans-4-hydroxycyclohexyl)amino]quinazoline-7-carboxamide]
74 | O=C(N[C@H](CO)c1ccccc1)c1ccc2cnc(NC3CCCCC3)nc2c1 [Example 373, 2-(cyclohexylamino)-N-[(1S)-2-hydroxy-1-phenylethyl]quinazoline-7-carboxamide]
200 | O=C(NC(CO)c1ccccc1)c1ccc2cnc(NC3CCC3)nc2c1 (stereo not shown) [Example 383, 2-(cyclobutylamino)-N-(2-hydroxy-1-phenylethyl)quinazoline-7-carboxamide]
166 | Cc1n[nH]c(C)c1CNC(=O)c1cccc2cnc(N[C@H]3CC[C@H](O)CC3)nc12 [Example 452, N-[(3,5-dimethyl-1H-pyrazol-4-yl)methyl]-2-[(trans-4-hydroxycyclohexyl)amino]quinazoline-8-carboxamide]
